Laboratory results as given in PMC10578023 (Cell Communication and Signaling : CCS, 2023).

Columns and labels:
JAK1/JAK3 [1] = assay: IL-2-stimulated pSTAT5 in human whole blood; assay type: cell-based
Experimental: With respect to IL-2-stimulated JAK1/3 activation in human whole blood cells, whole blood (50 μL) was preincubated with compounds for 30 min and then stimulated with IL-2 (20 ng/mL) for 15 min.
(§1) The stimulations stated above were terminated with prewarmed Lyse/Fix Buffer (558,049; BD Biosciences, San Jose, CA, USA) for 10 min. Cells were stained with an anti-cluster of differentiation (CD)3 fluorescein isothiocyanate (FITC) antibody (required for PBMCs but not for the other cell types), washed, and permeabilized on ice using Perm III Buffer (558,050; BD Biosciences) prior to staining with an Alexa Fluor 647 anti-phosphorylated (p)STAT5 (pY694) antibody for 30 min and analyzed by flow cytometry. Phosphorylation of STAT5 was quantified by the median fluorescence intensity (MFI) after gating on the CD3-positive population.

JAK1/JAK3 [2] = assay: IL-2-stimulated pSTAT5 in human PBMC; assay type: cell-based; conditions: @10μM
Experimental: With regard to IL-2-stimulated JAK1/3 activation in human PBMCs, after 1 h of incubation with QL-1200186, human PBMCs were stimulated with human IL-2 (20 ng/mL; C013; Novoprotein) for 20 min.
as §1

[3] = Pharmacokinetic study in C57BL/6 mice; assay type: in vivo
Experimental: The PK study was conducted using healthy male C57BL/6 mice (18–22 g, n = 6). Mice were fed and given free access to water prior to dosing. QL-1200186 was administered via oral or intravenous routes at doses of 10 mg/kg and 1 mg/kg, respectively. Blood samples were collected at 0.0833, 0.25, 0.5, 1, 2, 4, 8 and 24 h from the saphenous vein. Plasma was separated within 1 h of sampling by centrifugation at 1000 g. Liquid chromatography–tandem mass spectrometry of the sample was carried out on a mass spectrometer (API 5500; AB Sciex, Framingham, MA, USA). Chromatographic separation was achieved using a C18 column (2.6 µm, 50 × 3.0 mm; Kinetex; Phenomenex, Torrance, CA, USA). The main PK parameters were calculated by WinNonlin 8.0 (Certara, Princeton, NJ, USA).

[4] = tested on: forty-four safety targets; assay: In vitro off-target panel of 44 safety targets; conditions: 10 µM
Experimental: The pharmacologic safety of QL-1200186 was tested by analyzing forty-four safety targets in vitro. The off-target effects of QL-1200186 on 24 G protein-coupled receptors (β1, β2, D1, H2, A2A, CB1, CB2,5-HT1A, 5-HT1B and D2S) were evaluated by measuring the changes in cyclic adenosine monophosphate and IP-1 levels. The effects of QL-1200186 on the current changes of eight ion-channel targets were determined by methods based on fluorescent imaging plate reading and patch clamps. Using stable transfer or transient plasmid transfer, the excitatory and inhibitory effects of QL-1200186 on glucocorticoid receptors and androgen receptors in the nucleus were determined by the change in luciferase expression. The inhibitory effects of QL-1200186 on seven enzymes (including cyclo-oxygenase-2, phosphodiesterase (PDE) 3A and PDE4D2) were evaluated by biochemical methods based on luminescence and fluorescence. After data analyses, radar charts were used to display the results.

TYK2/JAK1 = assay: IFNα-induced pSTAT1 in CD19+ B cells of human PBMCs; assay type: cell-based
Experimental: The reaction was terminated by collecting cells for surface staining. Cells were stained with anti-CD3 FITC (300406; Biolegend, San Diego, CA, USA), anti-CD19 APC (555415; BD Biosciences) or aqua fluorescent reactive dye BV421 (L34966A; Invitrogen, Carlsbad, CA, USA) antibodies for 20 min. After washing, fixation buffer (557870; BD Biosciences) was added and incubated for 10 min. Cells were washed and permeabilized on ice using Perm III Buffer (558050; BD Biosciences). Cells were stained with PE anti-PSTAT1 antibody (562069; BD Biosciences) for 30 min and analyzed by flow cytometry.

TYK2/JAK2 = assay: IL-12/IL-18-induced IFNγ production in NK-92 cells, ELISA; assay type: cell-based, human
Experimental: The inhibitory effect of QL-1200186 on IL-12/IL-18-induced IFNγ production in NK cells or human whole blood was determined by enzyme-linked immunosorbent assay (ELISA). NK92 cells were stimulated with recombinant human IL-12 (2 ng/mL; 200–12; PeproTech, Cranbury, NJ, USA) and recombinant human IL-18 (5 ng/mL; 9124-IL-050/CF; R&D Systems, Minneapolis, MN, USA) with or without QL-1200186 for 24 h at 37 °C. For human whole blood cells, whole blood (200 μL) was preincubated with the compound for 1 h and then stimulated with recombinant human IL-12 (2 ng/mL) or recombinant human IL-18 (10 ng/mL) for 24 h. After centrifugation, the supernatant was collected, and IFNγ production in the supernatant was measured with human IFNγ ELISA kits according to the manufacturer’s instructions (Biolegend, 430,104).

JAK2/JAK2 = assay: TPO-stimulated pSTAT3/STAT5 in platelets of human whole blood; assay type: cell-based
Experimental: Stimulation was terminated by adding Lyse/Fix buffer. Staining with BUV786 mouse anti-human CD61 antibody (744384; BD Biosciences) was carried out, followed by washing, permeabilization and staining with PE mouse anti-human STAT3 antibody (651004; BD Biosciences) and APC mouse anti-human STAT5 antibody (562076; BD Biosciences), as described above. The expression of p-STAT3 and STAT5 was quantified by the MFI after the number of CD61-positive platelets was optimized.

[5] = dogs, data not shown
CYP450 3A4/5 = assay: CYP inhibition assay; assay type: in vitro ADME
Experimental: (§2) The ADME properties of QL-1200186 in vitro were measured by the following assays: Caco-2 permeability assay, CYP inhibition assay, protein binding assay, and liver microsome assay. Each assay was performed as previously described.

CYP450 2C19 = CYP450 2C19 (Homo sapiens, UniProt P33261); assay: CYP inhibition assay; assay type: in vitro ADME
Sequence of CYP450 2C19 (P33261 whole entry): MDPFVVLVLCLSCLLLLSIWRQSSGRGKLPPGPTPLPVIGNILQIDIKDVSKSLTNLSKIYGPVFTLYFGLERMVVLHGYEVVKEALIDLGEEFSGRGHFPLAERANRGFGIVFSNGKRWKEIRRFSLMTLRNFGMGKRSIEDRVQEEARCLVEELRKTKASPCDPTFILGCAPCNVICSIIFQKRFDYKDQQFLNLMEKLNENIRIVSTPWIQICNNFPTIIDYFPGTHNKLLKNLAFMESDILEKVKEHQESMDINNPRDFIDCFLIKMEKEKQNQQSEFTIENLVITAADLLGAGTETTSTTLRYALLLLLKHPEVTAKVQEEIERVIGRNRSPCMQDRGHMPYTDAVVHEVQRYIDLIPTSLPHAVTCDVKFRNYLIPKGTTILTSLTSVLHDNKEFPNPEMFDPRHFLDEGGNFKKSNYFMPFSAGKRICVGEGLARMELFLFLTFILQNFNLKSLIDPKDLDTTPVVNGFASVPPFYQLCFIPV
Experimental: as §2

CYP450 2C9 = CYP450 2C9 (Homo sapiens, UniProt P11712); assay: CYP inhibition assay; assay type: in vitro ADME
Sequence of CYP450 2C9 (P11712 whole entry): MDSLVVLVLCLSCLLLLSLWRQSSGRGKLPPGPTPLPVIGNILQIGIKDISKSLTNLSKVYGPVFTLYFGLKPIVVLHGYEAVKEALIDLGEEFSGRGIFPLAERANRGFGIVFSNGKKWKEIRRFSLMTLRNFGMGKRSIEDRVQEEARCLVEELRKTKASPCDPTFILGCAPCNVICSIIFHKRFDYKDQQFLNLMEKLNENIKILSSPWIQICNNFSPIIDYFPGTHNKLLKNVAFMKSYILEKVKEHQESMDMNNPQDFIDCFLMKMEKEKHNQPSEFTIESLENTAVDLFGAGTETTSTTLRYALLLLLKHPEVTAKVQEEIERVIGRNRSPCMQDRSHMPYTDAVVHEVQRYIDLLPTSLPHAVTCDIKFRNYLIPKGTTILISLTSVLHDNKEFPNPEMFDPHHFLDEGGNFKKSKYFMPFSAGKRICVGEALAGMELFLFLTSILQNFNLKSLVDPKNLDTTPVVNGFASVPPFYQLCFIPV
Experimental: as §2

CYP450 2D6 = CYP450 2D6 (Homo sapiens, UniProt P10635); assay: CYP inhibition assay; assay type: in vitro ADME
Sequence of CYP450 2D6 (P10635 whole entry): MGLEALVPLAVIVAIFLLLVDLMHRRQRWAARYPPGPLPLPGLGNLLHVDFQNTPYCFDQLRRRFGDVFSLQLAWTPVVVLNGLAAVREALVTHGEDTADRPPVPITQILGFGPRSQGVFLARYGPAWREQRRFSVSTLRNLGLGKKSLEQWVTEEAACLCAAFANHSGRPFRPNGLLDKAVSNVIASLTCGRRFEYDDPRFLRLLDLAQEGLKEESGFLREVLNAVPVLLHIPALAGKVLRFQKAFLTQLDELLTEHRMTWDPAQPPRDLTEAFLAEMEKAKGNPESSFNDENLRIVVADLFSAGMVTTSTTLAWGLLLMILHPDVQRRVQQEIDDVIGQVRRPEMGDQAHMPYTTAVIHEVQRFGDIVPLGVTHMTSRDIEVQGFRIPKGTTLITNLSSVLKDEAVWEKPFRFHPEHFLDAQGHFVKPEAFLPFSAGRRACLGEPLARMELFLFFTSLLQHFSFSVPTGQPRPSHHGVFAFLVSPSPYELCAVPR
Experimental: as §2

Q: What does the source list for CNC(=O)c1cnc2cc1Nc1cc(cc(-c3ccn(C)n3)c1OC)CCOCc1cccc(n1)N2 [QL-1200186, 5^6-methoxy-N-methyl-5^5-(1-methyl-1H-pyrazol-3-yl)-8-oxa-2,4-diaza-1(2,6),3(2,4)-dipyridina-5(1,3)-benzenacyclononaphane-3^5-carboxamide]?
A: activity in IL-2-mediated JAK1/JAK3 signaling (JAK1/JAK3 [1]): no activity; IL-2- pSTAT5 in PBMC (JAK1/JAK3) inhibition (JAK1/JAK3 [2]): ~18% inhibition @10μM; AUC ([3]; intravenous 1 mg/kg): 1482 ng·h/mL; CL ([3]; intravenous 1 mg/kg): 11.6 mL/min/kg; MRTInf ([3]; intravenous 1 mg/kg): 1.22 h; T1/2 ([3]; intravenous 1 mg/kg): 1.45 h; Vss ([3]; intravenous 1 mg/kg): 0.842 L/kg; AUC ([3]; oral 10 mg/kg): 20320 ng·h/mL; Cmax ([3]; oral 10 mg/kg): 3543 ng/mL; F (bioavailability) ([3]; oral 10 mg/kg): 137%; MRTInf ([3]; oral 10 mg/kg): 4.34 h; T1/2 ([3]; oral 10 mg/kg): 2.73 h; in vitro off-target safety, 44 safety targets [4]: suitable safety; IC50 (TYK2/JAK1): 1.43 nM; IC50 (TYK2/JAK2): 32.5 nM; TPO-pSTAT3/STAT5 in human whole blood (JAK2/JAK2) inhibition (JAK2/JAK2; @10μM): no inhibition @10μM; activity in thrombopoietin (TPO)-induced JAK2/JAK2 signaling (JAK2/JAK2; human whole blood): no activity; safety in toxicological studies [5]: excellent safety; IC50 (CYP450 3A4/5): > 50 µM; IC50 (CYP450 2C19): 2900 nM; IC50 (CYP450 2C9): 6.4 µM; IC50 (CYP450 2D6): > 50 µM
